In PubChem BioAssay AID1996:
≈ marks a conversion by molar mass, not a printed value.

Settings: buffer; pH 7.4; 200.0 µM

| SMILES | solubility kinetic |
| --- | --- |
| O=C1/C(=C\c2ccsc2)N2CCC1CC2 | 21.3 µg/mL (≈ 97.1 µM) |
| Cc1nc2ccccc2c(=O)n1-c1ccc(Br)cn1 | > 47.4 µg/mL |
| CCOC(=O)c1c(C)[nH]c(C(=O)OCc2ccccc2F)c1C | < 0.7 µg/mL |
| COc1ccc(N(C)S(=O)(=O)c2c(C)noc2C)c(OC)c1 | > 49 µg/mL |
| O=C(O)CCN1CCc2ccccc2C1c1ccncc1 (stereo unspecified) | > 42.4 µg/mL |
| Cc1cnc(NC(=O)c2cccs2)s1 | 28.1 µg/mL (≈ 125 µM) |
| COc1ccc(NC(=S)Nc2ccccc2Cl)cn1 | 38.8 µg/mL (≈ 132 µM) |
| CC(C(Sc1ccccc1N)c1ccccc1)[N+](=O)[O-] (stereo unspecified) | 15.1 µg/mL (≈ 52.4 µM) |
| O=C(NCCCN1CCOCC1)c1ccc(Cl)c([N+](=O)[O-])c1 | 45.2 µg/mL (≈ 138 µM) |
| O=c1[nH]c(=S)n(-c2ccccc2F)c(O)c1C=NCCN1CCNCC1 | 55.3 µg/mL (≈ 147 µM) |
| O=C(COc1ccccc1)Nc1ccc(F)cc1 | > 36.8 µg/mL |
| Cc1cccc(C(=O)OCC(=O)NCCCc2ccccc2)c1O | 12.3 µg/mL (≈ 37.6 µM) |
| CCOC(=O)c1c(C)noc1-c1ccco1 | 7.5 µg/mL (≈ 33.9 µM) |
| Cc1noc(C)c1C(=O)OCC(=O)Nc1ncc(C(F)(F)F)cc1Cl | 16.8 µg/mL (≈ 44.5 µM) |
| CCN(CC)C(=O)n1c(Cc2ccccc2)nc2ccccc21 | > 46.1 µg/mL |
| C=CCOc1ccc(/C=C/C(=O)OCC(=O)N2CCN(C(C)=O)CC2)cc1 | > 55.9 µg/mL |
| Cc1nc(Cl)c(Cl)n1CCOc1ccccc1 | > 40.7 µg/mL |
| CCC(=O)N1CCN=C1SCc1c(F)cccc1Cl | 12.6 µg/mL (≈ 41.9 µM) |
| Cc1ccc(NC(=O)CCCNC(=O)c2ccc(Cl)cc2)nc1 | 4.1 µg/mL (≈ 12.4 µM) |
| O=c1[nH]cccc1-c1nc2ccccc2n1Cc1ccc(F)cc1 | 47.7 µg/mL (≈ 149 µM) |
| CCOC(=O)c1cnc2c(F)ccc(F)c2c1Sc1ccccc1 | 5.7 µg/mL (≈ 16.5 µM) |
| Cc1ccc2c(c1)N(CC(=O)NCc1ccco1)C(=O)C(C(C)C)O2 (stereo unspecified) | 22.8 µg/mL (≈ 66.6 µM) |

| SMILES | solubility kinetic |
| --- | --- |
| Cc1ccc(C)c(S(=O)(=O)N2CCC3(CC2)OCCO3)c1 | > 46.7 µg/mL |
| O=C(Cc1cccs1)NCCc1csc(-c2ccccc2)n1 | > 49.3 µg/mL |
| CC(=O)NC1CCN(CC(=O)Nc2nccs2)CC1 | 40.5 µg/mL (≈ 143 µM) |
| Cc1ccc(-c2c(NCCc3ccccc3)c(=O)c2=O)cc1 | < 0.6 µg/mL |
| Cc1cc(C(=O)OCC(=O)NC2CC2)c2ccccc2n1 | > 42.6 µg/mL |
| Cc1ccc(NC(=O)CCC(=O)N2CCC(C)CC2)c([N+](=O)[O-])c1 | > 50 µg/mL |
| CN(C)c1ccc(NC(=O)COC(=O)c2ccc3c(c2)OCO3)cc1 | 10.8 µg/mL (≈ 31.5 µM) |
| O=c1nc(N2CCCC2)nc(N2CCCC2)[nH]1 | 34.3 µg/mL (≈ 146 µM) |
| COc1ccc(NC(=O)CCCOc2ccc(Cl)c(C)c2)cc1S(=O)(=O)N1CCOCC1 | 15.3 µg/mL (≈ 31.7 µM) |
| Cc1cc(-c2ccccc2)nc2c(Br)c(=O)[nH]n12 | > 45.6 µg/mL |
| COc1ccccc1N1C(=O)c2cccc3c(Cl)ccc(c23)C1=O | < 0.7 µg/mL |
| CN1C(=O)C(O)(CC(=O)/C=C/c2ccco2)c2ccccc21 (stereo unspecified) | > 44.6 µg/mL |
| CCN(CC)Cc1oc(-c2ccccc2)cc1C(=O)O | 32.2 µg/mL (≈ 118 µM) |
| CCn1c(/C=C2\C(=O)N(C(C)C)c3ccccc32)nc2ccccc2c1=O | 22.2 µg/mL (≈ 61.8 µM) |
| O=C(CN1CCOCC1)Nc1ccc([N+](=O)[O-])cc1 | 39.3 µg/mL (≈ 148 µM) |
| Cn1c(=O)cc(N)n(-c2ccccc2)c1=O | > 32.6 µg/mL |
| CC(OC(=O)C1=COCCO1)C(=O)NC1(C#N)CCCCC1 (stereo unspecified) | 45.7 µg/mL (≈ 148 µM) |
| NC(=O)c1cccc(-c2cccc(OC(=O)NC3CCCCC3)c2)c1 | < 0.4 µg/mL |
| CC(C)Cn1c(N)c(C(=O)COC(=O)c2cc(S(=O)(=O)N3CCOCC3)ccc2Br)c(=O)n(C)c1=O | 7.9 µg/mL (≈ 13.4 µM) |
| CC(=O)Nc1ccc(S(=O)(=O)N(C#N)c2nc(C)cc(C)n2)cc1 | > 51.8 µg/mL |
| CSc1ncccc1C(=O)Nc1nccs1 | > 37.7 µg/mL |
| O=C(CNC(=O)c1ccc(Cl)cc1)NC(CO)c1ccccc1 (stereo unspecified) | 32.6 µg/mL (≈ 98 µM) |

| SMILES | solubility kinetic |
| --- | --- |
| COC(=O)c1cc(C)sc1NC(=O)CSc1ncccn1 | 44 µg/mL (≈ 136 µM) |
| c1ccc(CNc2ncnc3scc(-c4cccs4)c23)nc1 | 37.2 µg/mL (≈ 115 µM) |
| CC(=O)Nc1ccc(S(=O)(=O)NCCC(=O)Nc2ncccc2C)cc1 | > 56.5 µg/mL |
| Cc1ccc(C)c(OCC(=O)N2CCc3ccccc3C2)c1 | 22.3 µg/mL (≈ 75.5 µM) |
| CCCOc1ccc(S(=O)(=O)N2CCOCC2)cc1[N+](=O)[O-] | > 49.6 µg/mL |
| CC(=O)NCCc1ccc(C(=O)Cn2cnc3ccccc3c2=O)cc1 | > 52.4 µg/mL |
| Cc1c(C(=O)NC2CCC(C)CC2)oc2ccccc12 (stereo unspecified) | 0.7 µg/mL (≈ 2.58 µM) |
| CCOc1cccc(C(=O)Nc2ccc3c(c2)OCCO3)c1 | 27.3 µg/mL (≈ 91.2 µM) |
| CC1CCN(C(=O)CSc2n[nH]c(-c3cccs3)n2)CC1 | > 48.4 µg/mL |
| CN(C)c1ccc(NC(=O)Cc2ccccc2)c2ccccc12 | 5.3 µg/mL (≈ 17.4 µM) |
| Cc1cc(-c2onc(C)c2C(=O)O)no1 | > 31.2 µg/mL |
| CCOc1ccccc1NC(=O)NC(=O)N(C)S(C)(=O)=O | 18 µg/mL (≈ 57.1 µM) |
| O=C(NC(=S)Nc1ccc(CN2CCOCC2)cc1)c1ccco1 | > 51.8 µg/mL |
| O=C(COC(=O)c1nsc(Cl)c1Cl)NC1CCCCC1 | > 50.6 µg/mL |
| CCNC(=O)C(=O)Nc1ccc(OC)c(Cl)c1 | 2.4 µg/mL (≈ 9.35 µM) |
| CN1CCN(c2ccc(NC(=O)c3ccc(Cl)cc3)cn2)CC1 | > 49.6 µg/mL |
| CC(C)(C)c1ccc(S(=O)(=O)NCc2ccccn2)cc1 | 44.1 µg/mL (≈ 145 µM) |
| CCOc1ccc(N2CC(C(=O)NCc3ccccc3)CC2=O)cc1 (stereo unspecified) | 9.8 µg/mL (≈ 29 µM) |
| COCCCN=CC1=C(O)CC(c2ccccc2)CC1=O (stereo unspecified) | > 43.1 µg/mL |
| NS(=O)(=O)c1ccc(Nc2nc(-c3cccnc3)cs2)cc1 | < 0.2 µg/mL |
| CCCCNC(=O)/C(=C/c1ccco1)NC(=O)c1ccco1 | 37.7 µg/mL (≈ 125 µM) |
| O=C(NC1CC1)c1nc(Cn2cc([N+](=O)[O-])cn2)no1 | > 41.7 µg/mL |

| SMILES | solubility kinetic |
| --- | --- |
| CCCn1c(Nc2cccc(OC)c2)nc2ccccc21 | 2.1 µg/mL (≈ 7.46 µM) |
| CC(=O)Nc1cccc(NC(=S)Nc2cccc3ccccc23)c1 | > 50.3 µg/mL |
| Cc1ccc(OC(C)C(=O)Nc2ccc(F)cc2)c([N+](=O)[O-])n1 (stereo unspecified) | 39.7 µg/mL (≈ 124 µM) |
| CCN(CC)C(=S)Oc1c(Cl)cccc1Cl | 2.2 µg/mL (≈ 7.91 µM) |
| CCCCOc1ccc(CSC(=N)N)cc1Cl.Cl | 40.6 µg/mL |
| O=C(NCc1ccccc1)c1ccc(CSc2ccccc2)o1 | 11.1 µg/mL (≈ 34.3 µM) |
| CC1CCC(C(C)C)C(OCC(O)CNC(C)C)C1.Cl (stereo unspecified) | > 46.2 µg/mL |
| CC1(C)Cc2c(sc(NC(=O)Cc3ccccc3)c2C#N)CO1 | 0.4 µg/mL (≈ 1.23 µM) |
| NS(=O)(=O)c1ccc(CCNC(=O)c2cnccn2)cc1 | > 46 µg/mL |
| O=C(Nc1cccc(Cl)c1)C1=CC=CN2CCS(=O)(=O)N=C12 | 7.1 µg/mL (≈ 21 µM) |
| Cc1ccc2nc(SCC(=O)Nc3c(F)cccc3F)[nH]c2c1 | 43.4 µg/mL (≈ 130 µM) |
| O=C(NCC1CC1)Nc1cccc(Cl)c1 | > 33.7 µg/mL |
| CSc1ccccc1NC(=O)COC(=O)c1ccccc1O | 2 µg/mL (≈ 6.3 µM) |
| O=C(NCc1ccc(F)cc1)c1cnc(Cl)c(Cl)c1 | 6.9 µg/mL (≈ 23.1 µM) |
| COC(=O)c1cccc(N2C(=O)C3C4C=CC(CC4)C3C2=O)c1 (stereo unspecified) | 9.2 µg/mL (≈ 29.5 µM) |
| Cc1ccc(CCC(=O)Nc2ccc(C#N)cc2)o1 | 37 µg/mL (≈ 146 µM) |
| CCn1ccnc1C(O)c1cccc2ccccc12 (stereo unspecified) | > 37.8 µg/mL |
| O=C(NCC1CCN(S(=O)(=O)c2ccccc2)CC1)Nc1ccccc1 | 3.6 µg/mL (≈ 9.64 µM) |
| C=CCNC(=O)C(=O)NCCCN1CCOCC1 | > 38.3 µg/mL |
| O=S(=O)(c1ccc(Cl)c2ccccc12)N1CCCC1 | < 0.6 µg/mL |
